From patent US10344025B2, “GLS1 inhibitors for treating disease” (Board of Regents, The University of Texas System, priority 2014, dated 2019)

Key:
A549 cells = assay: Proliferation Assay (A549 viability, Cell Titer Fluor, 72 hours); type: cell-based; conditions: Homo sapiens, A549, 72 h
Summary of the method: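 Cell Titer Fluor fluorescence after 72 h compound treatment (0.5% DMSO, 37 °C, 5% CO2) of A549 cells plated 24 h earlier at 1000/well. Four-parameter logistic fitting gave IC50.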

[1] = biological target: purified recombinant human GAC (GLS1) (Homo sapiens (Human), UniProt O94925); assay: GLS1 Enzymatic Activity Assay (dual-coupled enzymatic assay, resorufin/Amplex UltraRed readout); type: biochemical;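 further: glutamate from GAC coupled via glutamate oxidase and peroxidase to resorufin, read as fluorescence (ex 530, em 590 nm) kinetically or at 20 min, four-parameter logistic IC50 fit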
Sequence of purified recombinant human GAC (GLS1) (O94925 other isoform, or with tags, fused parts or gaps): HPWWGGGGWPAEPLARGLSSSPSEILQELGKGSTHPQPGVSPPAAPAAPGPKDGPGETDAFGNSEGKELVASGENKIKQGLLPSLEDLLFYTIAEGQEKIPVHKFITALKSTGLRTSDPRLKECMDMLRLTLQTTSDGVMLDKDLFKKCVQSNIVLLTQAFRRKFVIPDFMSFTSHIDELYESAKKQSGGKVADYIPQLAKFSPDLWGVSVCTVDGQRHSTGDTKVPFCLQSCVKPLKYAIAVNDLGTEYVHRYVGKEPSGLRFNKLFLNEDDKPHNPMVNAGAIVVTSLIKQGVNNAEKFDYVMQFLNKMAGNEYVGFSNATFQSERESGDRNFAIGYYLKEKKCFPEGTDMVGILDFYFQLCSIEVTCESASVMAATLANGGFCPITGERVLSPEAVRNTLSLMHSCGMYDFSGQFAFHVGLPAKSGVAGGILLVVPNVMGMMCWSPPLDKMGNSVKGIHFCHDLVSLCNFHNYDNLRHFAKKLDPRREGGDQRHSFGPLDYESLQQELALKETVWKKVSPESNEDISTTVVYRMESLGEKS

Compound	EC50 (A549 cells) [nM]	IC50 [1] [nM]
O=C(NCc1cc(C2CC2)ccn1)c1cn(CCC(F)Cn2cc(C(=O)NCc3cncc(C(F)(F)F)c3)nn2)nn1 (stereo not shown) [Example 152, N-[(4-cyclopropylpyridin-2-yl)methyl]-1-{3-fluoro-4-[4-({[5-(trifluoromethyl)pyridin-3-yl]methyl}carbamoyl)-1H-1,2,3-triazol-1-yl]butyl}-1H-1,2,3-triazole-4-carboxamide]	< 100	< 100
CNC(=O)c1cn(CCC(F)Cn2cc(C(=O)NCc3cc(OC(F)(F)F)ccc3F)nn2)nn1 (stereo not shown) [Example 153, 1-{3-fluoro-4-[4-({[2-fluoro-5-(trifluoromethoxy)phenyl]methyl}carbamoyl)-1H-1,2,3-triazol-1-yl]butyl}-N-methyl-1H-1,2,3-triazole-4-carboxamide]	100 to 500	< 100
CCNC(=O)c1cn(CCC(F)Cn2cc(C(=O)NCc3cc(C(F)(F)F)ccn3)nn2)nn1 (stereo not shown) [Example 154, N-ethyl-1-{3-fluoro-4-[4-({[4-(trifluoromethyl)pyridin-2-yl]methyl}carbamoyl)-1H-1,2,3-triazol-1-yl]butyl}-1H-1,2,3-triazole-4-carboxamide]	500 to 5000	500 to 5000
O=C(NCc1cn2ccsc2n1)c1cn(CCC(F)Cn2cc(C(=O)NCc3cc(C(F)(F)F)ccn3)nn2)nn1 (stereo not shown) [Example 155, 1-{3-fluoro-4-[4-({[4-(trifluoromethyl)pyridin-2-yl]methyl}carbamoyl)-1H-1,2,3-triazol-1-yl]butyl}-N-{imidazo[2,1-b][1,3]thiazol-6-ylmethyl}-1H-1,2,3-triazole-4-carboxamide]	500 to 5000	< 100
O=C(NCc1ccc(C(F)(F)F)cn1)c1cn(CCC(F)Cn2cc(C(=O)NCc3cc(C(F)(F)F)ccn3)nn2)nn1 (stereo not shown) [Example 156, 1-{2-fluoro-4-[4-({[5-(trifluoromethyl)pyridin-2-yl]methyl}carbamoyl)-1H-1,2,3-triazol-1-yl]butyl}-N-{[4-(trifluoromethyl)pyridin-2-yl]methyl}-1H-1,2,3-triazole-4-carboxamide]	< 100	< 100
O=C(NCc1cc(C(F)(F)F)ccn1)c1cn(CCCCn2cc(C(=O)NCc3cc(C(F)(F)F)ccn3)nn2)nn1 [Example 158, N-{[4-(trifluoromethyl)pyridin-2-yl]methyl}-1-{4-[4-({[4-(trifluoromethyl)pyridin-2-yl]methyl}carbamoyl)-1H-1,2,3-triazol-1-yl]butyl}-1H-1,2,3-triazole-4-carboxamide]	< 100	< 100
Cc1ccnc(CNC(=O)c2cn(CCC(F)Cn3cc(C(=O)NCc4cc(C(F)(F)F)ccn4)nn3)nn2)c1 (stereo not shown) [Example 159, 1-[2-fluoro-4-(4-{[(4-methylpyridin-2-yl)methyl]carbamoyl}-1H-1,2,3-triazol-1-yl)butyl]-N-{[4-(trifluoromethyl)pyridin-2-yl]methyl}-1H-1,2,3-triazole-4-carboxamide]	100 to 500	< 100
CNC(=O)c1cn(CCC(F)Cn2cc(C(=O)NCc3cccc(OC(F)(F)F)c3)nn2)nn1 (stereo not shown) [Example 162, 1-{3-fluoro-4-[4-({[3-(trifluoromethoxy)phenyl]methyl}carbamoyl)-1H-1,2,3-triazol-1-yl]butyl}-N-methyl-1H-1,2,3-triazole-4-carboxamide]	100 to 500	100 to 500
CNC(=O)c1cn(CCC(F)Cn2cc(C(=O)NCc3cccc(CNC(=O)OC(C)(C)C)c3)nn2)nn1 (stereo not shown) [Example 166, tert-butyl N-[(3-{[(1-{2-fluoro-4-[4-(methylcarbamoyl)-1H-1,2,3-triazol-1-yl]butyl}-1H-1,2,3-triazol-4-yl)formamido]methyl}phenyl)methyl]carbamate]	100 to 500	< 100
N#CCNC(=O)c1cn(CCC(F)Cn2cc(C(=O)NCc3cc(OC(F)(F)F)ccc3F)nn2)nn1 (stereo not shown) [Example 168, N-(cyanomethyl)-1-{3-fluoro-4-[4-({[2-fluoro-5-(trifluoromethoxy)phenyl]methyl}carbamoyl)-1H-1,2,3-triazol-1-yl]butyl}-1H-1,2,3-triazole-4-carboxamide]	100 to 500	< 100
CNC(=O)c1cn(CCC(F)Cn2cc(C(=O)NCc3cncc4ccccc34)nn2)nn1 (stereo not shown) [Example 171, 1-(3-fluoro-4-{4-[(isoquinolin-4-ylmethyl)carbamoyl]-1H-1,2,3-triazol-1-yl}butyl)-N-methyl-1H-1,2,3-triazole-4-carboxamide]	500 to 5000	100 to 500
CNC(=O)c1cn(CCCCc2ccc(NC(=O)Cc3cccc(CNC(=O)OC(C)(C)C)c3)nn2)nn1 [Example 172]	< 100	< 100
CC(=O)Nc1ccc(CCCCn2cc(C(=O)NCc3cccc(OC(F)(F)F)c3)nn2)nn1 [Example 174, 1-[4-(6-acetamidopyridazin-3-yl)butyl]-N-{[3-(trifluoromethoxy)phenyl]methyl}-1H-1,2,3-triazole-4-carboxamide]	100 to 500	< 100

Continued, values first:

EC50 (A549 cells) [nM]	IC50 [1] [nM]	Compound
< 100	< 100	CNC(=O)c1cn(CCCCc2ccc(NC(=O)Cc3cc(OC(F)(F)F)ccc3F)nn2)nn1 [Example 160, 1-[4-(6-{2-[2-fluoro-5-(trifluoromethoxy)phenyl]acetamido}pyridazin-3-yl)butyl]-N-methyl-1H-1,2,3-triazole-4-carboxamide]
< 100	< 100	CNC(=O)c1cn(CCCCc2ccc(NC(=O)Cc3ccccc3)nn2)nn1 [Example 161, N-methyl-1-{4-[6-(2-phenylacetamido)pyridazin-3-yl]butyl}-1H-1,2,3-triazole-4-carboxamide]
500 to 5000	500 to 5000	CNC(=O)c1cn(CCC(F)Cn2cc(C(=O)NCc3ccccn3)nn2)nn1 (stereo not shown) [Example 163, 1-(3-fluoro-4-{4-[(pyridin-2-ylmethyl)carbamoyl]-1H-1,2,3-triazol-1-yl}butyl)-N-methyl-1H-1,2,3-triazole-4-carboxamide]
100 to 500	< 100	CNC(=O)c1cn(CCC(F)Cn2cc(C(=O)NCc3cncc(C4CC4)c3)nn2)nn1 (stereo not shown) [Example 164, 1-[4-(4-{[(5-cyclopropylpyridin-3-yl)methyl]carbamoyl}-1H-1,2,3-triazol-1-yl)-3-fluorobutyl]-N-methyl-1H-1,2,3-triazole-4-carboxamide]
500 to 5000	100 to 500	CNC(=O)c1cn(CCC(F)Cn2cc(C(=O)NCc3ccccc3)nn2)nn1 (stereo not shown) [Example 165, 1-{4-[4-(benzylcarbamoyl)-1H-1,2,3-triazol-1-yl]-3-fluorobutyl}-N-methyl-1H-1,2,3-triazole-4-carboxamide]
500 to 5000	100 to 500	CNC(=O)c1cn(CCC(F)Cn2cc(C(=O)NCc3cnc4ccccc4c3)nn2)nn1 (stereo not shown) [Example 170, 1-(3-fluoro-4-{4-[(quinolin-3-ylmethyl)carbamoyl]-1H-1,2,3-triazol-1-yl}butyl)-N-methyl-1H-1,2,3-triazole-4-carboxamide]
100 to 500	100 to 500	CNC(=O)c1cn(CCCCc2ccc(NC(=O)Cc3cccc(OCCOC)c3)nn2)nn1 [Example 173, 1-[4-(6-{2-[3-(2-methoxyethoxy)phenyl]acetamido}pyridazin-3-yl)butyl]-N-methyl-1H-1,2,3-triazole-4-carboxamide]
